Data set [1] has as its target T1, Muscarinic acetylcholine receptor M1 (Homo sapiens, UniProt P11229).
T1 sequence (P11229 whole entry): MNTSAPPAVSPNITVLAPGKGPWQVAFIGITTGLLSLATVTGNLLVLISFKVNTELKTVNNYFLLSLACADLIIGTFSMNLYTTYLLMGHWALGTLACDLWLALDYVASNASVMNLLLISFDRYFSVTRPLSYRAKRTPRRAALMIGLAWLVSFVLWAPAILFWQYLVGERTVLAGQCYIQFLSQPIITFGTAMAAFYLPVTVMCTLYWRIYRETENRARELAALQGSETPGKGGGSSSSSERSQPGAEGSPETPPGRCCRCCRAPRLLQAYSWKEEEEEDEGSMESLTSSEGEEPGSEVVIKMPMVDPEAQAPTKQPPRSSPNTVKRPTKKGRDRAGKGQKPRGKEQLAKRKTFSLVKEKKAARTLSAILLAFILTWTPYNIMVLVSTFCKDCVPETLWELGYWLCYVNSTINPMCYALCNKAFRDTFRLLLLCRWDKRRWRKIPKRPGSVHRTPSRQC
Description: Displacement of [3H]pirenzepine from M1 receptor

Data set [2] concerns the target T2, Adrenergic receptor alpha-1 (Homo sapiens, UniProt P35348+P25100+P35368).
T2 sequence (P35348 whole entry): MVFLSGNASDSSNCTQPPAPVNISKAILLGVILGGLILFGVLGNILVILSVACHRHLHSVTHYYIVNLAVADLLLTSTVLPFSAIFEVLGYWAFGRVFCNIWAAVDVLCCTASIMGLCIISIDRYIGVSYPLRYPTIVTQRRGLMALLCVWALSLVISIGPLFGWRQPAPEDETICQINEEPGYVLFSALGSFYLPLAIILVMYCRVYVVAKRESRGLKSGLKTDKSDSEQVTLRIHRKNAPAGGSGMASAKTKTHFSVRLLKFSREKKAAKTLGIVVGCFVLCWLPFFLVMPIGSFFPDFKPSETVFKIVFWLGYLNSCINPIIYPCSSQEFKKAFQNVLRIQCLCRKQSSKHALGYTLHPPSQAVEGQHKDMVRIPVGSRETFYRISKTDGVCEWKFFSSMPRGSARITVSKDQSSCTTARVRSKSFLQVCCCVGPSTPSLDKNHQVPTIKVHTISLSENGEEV
T2 sequence (P25100 whole entry): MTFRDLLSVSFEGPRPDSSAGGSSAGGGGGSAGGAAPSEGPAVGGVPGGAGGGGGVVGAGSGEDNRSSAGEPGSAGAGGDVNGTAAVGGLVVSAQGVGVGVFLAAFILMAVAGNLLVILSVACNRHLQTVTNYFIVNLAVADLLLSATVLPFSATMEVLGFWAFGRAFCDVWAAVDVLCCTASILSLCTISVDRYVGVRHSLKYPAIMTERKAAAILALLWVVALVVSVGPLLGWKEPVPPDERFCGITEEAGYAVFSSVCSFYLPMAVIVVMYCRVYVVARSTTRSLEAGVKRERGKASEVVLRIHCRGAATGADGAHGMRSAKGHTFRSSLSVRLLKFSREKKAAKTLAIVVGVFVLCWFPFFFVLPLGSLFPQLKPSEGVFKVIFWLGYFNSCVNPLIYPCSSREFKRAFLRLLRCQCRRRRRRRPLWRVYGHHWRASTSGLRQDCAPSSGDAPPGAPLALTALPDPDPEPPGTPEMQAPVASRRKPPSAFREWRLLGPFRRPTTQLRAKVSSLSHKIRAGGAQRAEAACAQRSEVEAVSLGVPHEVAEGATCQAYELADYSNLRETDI
T2 sequence (P35368 whole entry): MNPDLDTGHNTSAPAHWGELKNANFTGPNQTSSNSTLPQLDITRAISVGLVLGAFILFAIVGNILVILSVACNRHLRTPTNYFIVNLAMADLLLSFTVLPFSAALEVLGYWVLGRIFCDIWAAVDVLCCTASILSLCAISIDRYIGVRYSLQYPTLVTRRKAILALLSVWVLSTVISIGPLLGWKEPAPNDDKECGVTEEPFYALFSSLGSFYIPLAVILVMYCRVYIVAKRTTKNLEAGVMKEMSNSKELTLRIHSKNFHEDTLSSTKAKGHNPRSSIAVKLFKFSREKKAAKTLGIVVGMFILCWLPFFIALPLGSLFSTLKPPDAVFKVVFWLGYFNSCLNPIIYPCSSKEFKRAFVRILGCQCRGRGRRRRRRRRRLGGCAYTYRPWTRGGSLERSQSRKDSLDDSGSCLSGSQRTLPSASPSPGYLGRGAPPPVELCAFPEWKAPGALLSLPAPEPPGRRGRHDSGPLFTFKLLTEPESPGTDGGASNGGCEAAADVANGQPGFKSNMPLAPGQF
The experiment in a line: Displacement of [3H]prazosin from Alpha-1 adrenergic receptor. It is filed as protein assay.

Data set [3] deals with Glutamate [NMDA] receptor.
Description: Binding affinity against NMDA receptor by displacement of [3H]Ro-256981
Data set [4] in a line: physchem.
Description: Dissociation constant (pKa)
Data set [5] relates to Mus musculus. The data set is described as follows: In vivo activity was measured in mice after ip administration using standard sound-induced seizures assay. It is filed as functional.
Data set [6] deals with Mus musculus. The data set is described as follows: In vivo activity was measured i mice after ip administration using standard sound-induced seizures assay. The data set is classed as functional.

“And” between values parts separate entries of the source, which are not always exact repeats. Equal entries are not always repeated.

This passage reports Ki, pKa and ED50 results from ChEMBL document CHEMBL1136613, “2-(3,4-Dihydro-1H-isoquinolin-2yl)-pyridines as a novel class of NR1/2B subtype selective NMDA receptor antagonists” (Bioorg Med Chem Lett, 2003).

For `OCCNc1ccnc(N2CCc3ccccc3C2)c1`, the results for the inhibitory constant (Ki) in data set [1], in data set [2] and in data set [3] were 6.1 µM, 2.3 µM and 0.002 µM, respectively. In data set [4], this molecule registered a pKa of 8.9. This molecule gave a median effective dose (ED50) in data set [5] of 13 mg/kg.
Regarding `CCc1cc(N)cc(N2CCc3ccccc3C2)n1`, the results for the Ki in data set [1], in data set [2] and in data set [3] were 2.5 µM, 0.67 µM and 0.003 µM, respectively. Also, the pKa in data set [4] turned out to be 9.
Consider `CNc1ccnc(N2CCc3ccccc3C2)c1`, for which the Ki in data set [1] was 1.2 µM; in data set [3], 0.008 µM and 0.019 µM. The same molecule registered a pKa in data set [4] of 8.8.
On to `Brc1ccc(N2CCc3ccccc3C2)nc1`, for which, in data set [3], the Ki is 7.5 µM. This molecule came in with a pKa in data set [4] of 3.
The matching figures for `Nc1cccnc1N1CCc2ccccc2C1`: 0.38 µM and 5.
Turning to `OCCNc1cc(N2CCc3ccccc3C2)nc2ccccc12`, in data set [3], the Ki came out at 0.0035 µM. In addition, in data set [6], the median effective dose (ED50) was below 12 mg/kg.
Molecule `Cc1ccc(N2CCc3ccccc3C2)nc1` displayed a pKa in data set [4] of 6.5.
`Cc1cc(N)nc(N2CCc3ccccc3C2)c1` had an inhibitory constant (Ki) in data set [3] of 0.11 µM. The molecule also came in with a pKa in data set [4] of 6.5.
Regarding `Cc1cnc(N2CCc3ccccc3C2)cc1NCCO`, the inhibition constant (Ki) in data set [1] was found to be 6.5 µM; in data set [2], 3.2 µM; in data set [3], 0.008 µM. Also, the pKa in data set [4] was 9.
`c1ccc(CNc2ccnc(N3CCc4ccccc4C3)c2)cc1` registered a Ki in data set [3] of 0.15 µM. In data set [4], this molecule registered a pKa of 8.6.
On to `Cc1cc(N)cc(N2CCc3ccccc3C2)n1`, for which the inhibition constant (Ki) in data set [1] was 2.6 µM; in data set [2], 0.73 µM; in data set [3] it was 0.005 µM. In data set [4], the pKa was 9.
On to `Nc1cccc(N2CCc3ccccc3C2)n1`, for which the affinity in data set [3], expressed as Ki, was 0.19 µM. The pKa in data set [4] is 6.
Taken in the same sequence, the figures for `Brc1cccc(N2CCc3ccccc3C2)n1` were 15 µM and 2.
In data set [3], `Cc1ccnc(N2CCc3ccccc3C2)c1` came in with a Ki of 0.38 µM. This molecule displayed a pKa in data set [4] of 6.6.
Taken in the same sequence, the figures for `CC(=O)Nc1ccnc(N2CCc3ccccc3C2)c1` were 0.38 µM and 6.5.
On to `Cc1cnc(N2CCc3ccccc3C2)cc1N`, for which the inhibition constant (Ki) worked out at 0.87 µM in data set [1], 1 µM in data set [2] and 0.004 µM in data set [3]. The same molecule registered a pKa in data set [4] of 8.7.
Taken in the same sequence, the figures for `Cc1cc(NCCO)cc(N2CCc3ccccc3C2)n1` were 3.8 µM, 3.3 µM, 0.004 µM and 9.2.
In turn, `Nc1ccc(N2CCc3ccccc3C2)nc1` registered an inhibition constant Ki in data set [3] of 1.1 µM. Further, the pKa in data set [4] came to 5.8.
As to `CN(C)c1ccnc(N2CCc3ccccc3C2)c1`, the values for the Ki in data set [1], in data set [2] and in data set [3] were 0.15 µM, 0.49 µM and 0.008 µM, respectively. The molecule further gave a pKa in data set [4] of 8.8.
Molecule `CCOC(=O)C(=O)Nc1cc(C)nc(N2CCc3ccccc3C2)c1` displayed a Ki in data set [3] of 0.26 µM. This molecule showed a pKa in data set [4] of 6.5.
`C[C@@H](CN1CCC(Cc2ccccc2)CC1)[C@@H](O)c1ccc(O)cc1` (single isomer, unassigned) came in with a Ki in data set [3] of 0.006 µM. It took a dose of 13 mg/kg to reach the 50% effect level in data set [5] (ED50).
For the molecule `Nc1cc(CO)nc(N2CCc3ccccc3C2)c1`, the inhibition constant Ki in data set [1] came out at 1.1 µM; in data set [2], 1.7 µM; in data set [3], 0.004 µM. The molecule also came in with a pKa in data set [4] of 8.1.
Consider `Nc1ccnc(N2CCc3ccccc3C2)c1`, for which the inhibition constant (Ki) was found to be 1.9 µM in data set [1], 1.2 µM in data set [2] and 0.003 µM in data set [3]. The molecule further displayed a pKa in data set [4] of 8.5. This molecule also showed a 50% effective dose (ED50) in data set [5] of 7 mg/kg.
Molecule `C[C@@H]([C@@H](O)c1ccc(O)cc1)N1CCC(O)(c2ccccc2)CC1` [TRAXOPRODIL] registered a median effective dose (ED50) in data set [5] of 13 mg/kg.
In turn, `c1ccc(N2CCc3ccccc3C2)nc1` came in with a Ki in data set [3] of 0.75 µM. Further, in data set [4], the pKa is 6.4.
In the case of `Nc1cc(N2CCc3ccccc3C2)nc2c1CCC2`, the inhibition constant Ki in data set [1] came out at 0.51 µM; in data set [2] it was 0.73 µM; in data set [3], 0.009 µM. The molecule further gave a pKa in data set [4] of 9.4.
